Patent US20240115670A1, “FIBROBLAST ACTIVATION PROTEIN MODULATION TO ALTER IMMUNE CELL MIGRATION AND TUMOR INFILTRATION” (Georgetown University, priority 2021, published 2024)

What was measured:
primary human NK cells = assay: 2D live imaging of primary NK cell migration on EL08.1D2 stromal cells; assay type: cell-based; details: 10 uM Cpd60 vs vehicle; three donors
Experimental: 2D migration studies were done as previously reported. In brief, EL08.1D2 stromal cells were grown to a confluent monolayer on Lab-Tek chamber slides pre-coated with 0.1% gelatin (Stemcell Technologies). […] Cells were imaged in 96-well ImageLock plates (Essen Bioscience) on the IncuCyte ZOOM Live-Cell Analysis System (Essen Bioscience) at 37° C. every 2 min in the phase-contrast mode (10× objective). Tracking of live cells was done using the manual tracking feature in Volocity or FIJI. Tracks were plotted using the Chemotaxis plugin of FUI. Cells that were in the field of imaging for fewer than two frames were discarded, as were cells which were non-adherent or floating. EL08.1D2 cells were used as de facto fiducial markers to ensure that neither they or the microscope stage was drifting and causing apparent NK cell movement.
Length and displacement measurements were derived directly from tracked cells and graphed using GraphPad software. Velocity data was obtained by dividing the total track length by the time of imaging.
2D migration studies were done as previously reported (31, 32). In brief, EL08.1D2 stromal cells were grown to a confluent monolayer on flat-bottomed 96 well ImageLock plates (Essen Bioscience) pre-coated with 0.1% gelatin (Stemcell Technologies). […] Freshly isolated human NK cells were imaged in 96-well on the IncuCyte ZOOM Live-Cell Analysis System (Essen Bioscience) at 37° C. every 2 min in the phase-contrast mode (10× objective). Tracking of live cells was done using the manual tracking feature in Fiji (33). Tracks were plotted using the Chemotaxis plugin of FIJI. Cells that were in the field of imaging for fewer than two frames were discarded, as were cells which were non-adherent or floating. EL08.1D2 cells were used as de facto fiducial markers to ensure that neither they or the microscope stage was drifting and causing apparent NK cell movement. Length and displacement measurements were derived directly from tracked cells and graphed using GraphPad software. Velocity data was obtained by dividing the total track length by the time of imaging.

NK92-GFP cells = assay: NK92-GFP extravasation from zebrafish blood vessels; assay type: in vivo; details: fish bathed in 10 uM Cpd60 vs vehicle; 1 hour after injection
Experimental: The zebrafish embryos were anesthetized with 0.0003016% tricaine (Pentair Aquatic Eco-Systems, Sigma-Aldrich, St. Louis, MO, USA) in the Georgetown-Lombardi Animal Shared Resource and positioned within our zebrafish stereotax on a proprietary microinjection plate. NK92-GFP cells were injected into the pericardium using an air driven Picospritzer Ha microinjector (General Valve/Parker Hannifin) under a stereoscope. After transplantation, embryos were allowed to recover for 1 hour at 33° C. Confocal imaging was performed on an Olympus IX-71 inverted microscope with a color CCD camera in the Georgetown-Lombardi Microscopy Shared Resource. Fluorescent imaging was performed on Keyence BZ-X. Images were taken at 10× across multiple z-stacks. […] NK extravasation quantification was performed by counting the number of GFP cells outside red vasculature. NK extravasation quantification was performed blinded to the treatment conditions. […]
Zebrafish studies were conducted in accordance with NIH guidelines for the care and use of laboratory animals and were approved by the Georgetown University Institutional Animal Care and Use Committee. […] NK extravasation quantification was performed by counting the number of GFP cells outside red vasculature. NK extravasation quantification was performed blinded to the treatment conditions. […]

Compound: N#C[C@@H]1CC(F)(F)CN1C(=O)CNC(=O)c1ccnc2ccccc12 [Cpd60]
- Euclidian distance traveled by NK cells (primary human NK cells): no significant impact
- NK cell velocity (primary human NK cells): significantly reduced
- accumulated distance traveled by NK cells (primary human NK cells): significantly reduced
- NK cell extravasation from the blood vessels (NK92-GFP cells): significantly reduced
